Assay [1] addresses Cyclin-dependent kinase 2 (Homo sapiens, UniProt P24941). Put plainly: Inhibitory activity against Cyclin-dependent kinase 2 (CDK2).
Assay [2] in a line: Inhibitory activity against Cyclin-dependent kinase 1 (CDK1).
Assay [3] concerns the target Cyclin-dependent kinase 4 (Homo sapiens, UniProt P11802). Put plainly: Inhibitory activity against Cyclin-dependent kinase 4 (CDK4).

Chain of Cyclin-dependent kinase 4 (P11802 whole entry): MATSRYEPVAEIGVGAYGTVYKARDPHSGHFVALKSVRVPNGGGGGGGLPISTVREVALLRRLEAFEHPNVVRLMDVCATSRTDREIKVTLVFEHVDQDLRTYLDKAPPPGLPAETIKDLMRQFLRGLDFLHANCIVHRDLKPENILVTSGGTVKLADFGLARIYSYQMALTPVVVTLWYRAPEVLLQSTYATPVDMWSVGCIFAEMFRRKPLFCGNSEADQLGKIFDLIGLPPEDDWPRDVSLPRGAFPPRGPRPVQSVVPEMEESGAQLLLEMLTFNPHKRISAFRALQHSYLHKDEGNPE

In assay [1], `Nc1nc2ccc(C(=O)c3c(F)cccc3F)cn2c1C(=O)c1ccc(Cl)cc1` registered an IC50 of 1710 nM.

Consider `Nc1nc2ccc(C(=O)c3c(F)cccc3Cl)cn2c1C(=O)c1c(F)cccc1F`, for which the IC50 in assay [2] came to 104 nM; in assay [1], 33 nM; in assay [3] it was 810 nM.

In the case of `COc1ccccc1C(=O)c1c(N)nc2ccc(C(=O)c3c(F)cccc3F)cn12`, the IC50 in assay [2] came out at 475 nM; in assay [1] it was 68 nM; in assay [3] it was 1970 nM.

For the molecule `Nc1nc2ccc(C(=O)c3c(F)cccc3F)cn2c1C(=O)c1c(F)cccc1Cl`, the IC50 in assay [2] was 239 nM; in assay [1], 102 nM; in assay [3] it was 827 nM.

Take `Nc1nc2ccc(/C(=C/c3nn[nH]n3)c3c(F)cccc3F)cn2c1C(=O)c1c(F)cccc1F`: the IC50 in assay [2] worked out at 96 nM; in assay [1], 1690 nM; in assay [3], 1700 nM.

`COc1cc(F)c(C(=S)c2c(N)nc3ccc(C(=O)c4c(F)cccc4F)cn23)c(F)c1`: the values for the IC50 in assay [2], in assay [1] and in assay [3] were 143 nM, 29 nM and 464 nM, respectively.

As for `Nc1nc2ccc(C(=O)c3c(F)cccc3F)cn2c1C(=S)c1c(F)cccc1F`, the IC50 in assay [2] was 105 nM; in assay [1], 26 nM; in assay [3], 786 nM.

For `Cc1ccccc1C(=O)c1ccc2nc(N)c(C(=O)c3c(F)cccc3F)n2c1`, the 50% inhibitory concentration (IC50) in assay [1] was 1290 nM.

`CN1CCN(CCOc2cc(F)c(C(=O)c3c(N)nc4ccc(C(=O)c5c(Cl)cccc5Cl)cn34)c(F)c2)CC1` displayed an IC50 in assay [1] of 812 nM.

In assay [1], `Nc1nc2ccc(C(=O)c3ccccc3C(F)(F)F)cn2c1C(=O)c1c(F)cccc1F` had an IC50 of 1070 nM.

Take `Nc1nc2ccc(C(=O)c3c(F)cccc3F)cn2c1C(=O)c1c(Cl)cccc1Cl`: the IC50 in assay [2] stood at 209 nM; in assay [1], 121 nM; in assay [3], 359 nM.

Take `Nc1nc2ccc(C(=O)c3c(F)cccc3F)cn2c1C(=O)c1cccs1`: the IC50 in assay [1] was 547 nM.

For the molecule `CN(C)CCOc1cc(F)c(C(=O)c2c(N)nc3ccc(C(=O)c4c(Cl)cccc4Cl)cn23)c(F)c1`, in assay [1], the IC50 stood at 984 nM.

Turning to `COc1cccc(OC)c1C(=S)c1c(N)nc2ccc(C(=O)c3c(F)cccc3F)cn12`, half-maximal inhibition in assay [1] (IC50) was put at 462 nM.

As for `NC(=O)c1cc(F)c(C(=O)c2c(N)nc3ccc(C(=O)c4c(Cl)cccc4Cl)cn23)c(F)c1`, the IC50 in assay [2] turned out to be 154 nM; in assay [1], 46 nM; in assay [3], 1140 nM.

The molecule `COc1ccccc1C(=O)c1ccc2nc(N)c(C(=O)c3c(F)cccc3F)n2c1` registered an IC50 in assay [1] of 603 nM.

For `Nc1nc2ccc(C(=O)c3c(F)cccc3F)cn2c1C(=O)c1c(F)cccc1F`, the IC50 worked out at 57 nM in assay [2], 122 nM in assay [1] and 1080 nM in assay [3].

For the molecule `Nc1nc2ccc(C(=O)c3c(Cl)cccc3Cl)cn2c1C(=O)c1c(F)cccc1F`, in assay [1], the IC50 was determined as 53 nM.

In assay [1], `N#C/C=C(\c1ccc2nc(N)c(C(=O)c3c(F)cccc3F)n2c1)c1c(F)cccc1F` returned an IC50 of 896 nM.

In assay [1], `Nc1nc2ccc(C(=O)c3ccccc3OC(F)(F)F)cn2c1C(=O)c1c(F)cccc1F` gave an IC50 of 2170 nM.

The molecule `Nc1nc2ccc(C(=O)c3c(F)cccc3F)cn2c1C(=O)c1ccccc1` returned an IC50 in assay [3] of 5050 nM.

For `COc1cc(F)c(C(=O)c2c(N)nc3ccc(C(=O)c4c(F)cccc4F)cn23)c(F)c1`, the IC50 worked out at 132 nM in assay [2], 91 nM in assay [1] and 838 nM in assay [3].

In assay [1], `Nc1nc2ccc(C(=O)c3ccccc3)cn2c1C(=O)c1c(F)cccc1F` gave an IC50 of 1930 nM.

`Nc1nc2ccc(C(=O)c3c(F)cccc3F)cn2c1C(=O)c1ccncc1` showed an IC50 in assay [1] of 2540 nM.

`Nc1nc2ccc(C(=O)c3c(Cl)cccc3Cl)cn2c1C(=O)c1c(F)cc(O)cc1F` displayed an IC50 in assay [1] of 52 nM.

In the case of `N#C/C=C(/c1ccc2nc(N)c(C(=O)c3c(F)cccc3F)n2c1)c1c(F)cccc1F`, the IC50 in assay [2] stood at 53 nM; in assay [1] it was 160 nM; in assay [3] it was 1550 nM.

In the case of `Nc1nc2ccc(C(=O)c3c(Cl)cccc3Cl)cn2c1C(=O)c1c(F)cc(C(=O)O)cc1F`, the IC50 in assay [2] is 328 nM; in assay [1], 95 nM; in assay [3] it was 2590 nM.

As to `Nc1nc2ccc(C(=O)c3c(F)cccc3F)cn2c1C(=S)c1ccccc1`, the half-maximal inhibitory concentration (IC50) was determined as 165 nM in assay [2], 214 nM in assay [1] and 1890 nM in assay [3].

On to `Nc1nc2ccc(C(=O)c3ccccc3Cl)cn2c1C(=O)c1c(F)cccc1F`, for which the midpoint of inhibition in assay [1], the IC50, lay at 428 nM.

In the case of `C=C(c1ccc2nc(N)c(C(=O)c3c(F)cccc3F)n2c1)c1c(F)cccc1F`, the results for the half-maximal inhibitory concentration (IC50) in assay [2], in assay [1] and in assay [3] were 93 nM, 63 nM and 1030 nM, respectively.
